This note sets out measurements from patent US11584732B2, “Methods of treatment using 4-(3-cyanophenyl)-6-pyridinylpyrimidine mGlu5 modulators” (Heptares Therapeutics Limited, priority 2013, dated 2023).

This test concerns CD-1 mice. Kind of test: In vivo efficacy test - marble burying. The arrangement: species or system mouse. The note with it: male CD-1 mice, po, 30 min prior to test; at a dose of 10 and 30 mg/kg versus vehicle group.

As for `N#Cc1cc(Cl)cc(-c2cc(-c3ccc(F)cn3)ncn2)c1` [Example 17, 3-chloro-5-[6-(5-fluoropyridin-2-yl)pyrimidin-4-yl]benzonitrile], the “number of marbles buried” value is “statistically significant decrease”.
